Experimental data from article PMC4077311, “A Huge PVDF Adsorption Difference Between Resveratrol and ε-Viniferin Allows to Quantitatively Purify Them and to Assess Their Anti-Tyrosinase Property” (Chromatographia, 2014).

Molecular target: Mushroom tyrosinase (Agaricus bisporus, UniProt C7FF04)
Experiment: Tyrosinase L-DOPA oxidase inhibition activity
Method: Then, 40 μL L-DOPA (2.5 mM) and 80 μL phosphate buffer were added to the solution. Optical density (OD) of each assay, relative to the control, was measured at 492 nm by using a microplate reader (Tecan® Infinite M200 spectrophotometer).
Results expression: Inhibition of enzyme activity by each sample is expressed as % inhibition compared to the control and represented by the following equation: [1 − (ODsample × ODcontrol^−1)] × 100.

Chain of Mushroom tyrosinase (G1K3P4 entry or part of it): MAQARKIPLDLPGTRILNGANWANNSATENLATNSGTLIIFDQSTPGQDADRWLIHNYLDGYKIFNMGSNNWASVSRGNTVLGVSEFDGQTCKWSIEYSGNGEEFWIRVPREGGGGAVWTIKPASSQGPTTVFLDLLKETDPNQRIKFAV
Chain of Mushroom tyrosinase (C7FF04 1-392): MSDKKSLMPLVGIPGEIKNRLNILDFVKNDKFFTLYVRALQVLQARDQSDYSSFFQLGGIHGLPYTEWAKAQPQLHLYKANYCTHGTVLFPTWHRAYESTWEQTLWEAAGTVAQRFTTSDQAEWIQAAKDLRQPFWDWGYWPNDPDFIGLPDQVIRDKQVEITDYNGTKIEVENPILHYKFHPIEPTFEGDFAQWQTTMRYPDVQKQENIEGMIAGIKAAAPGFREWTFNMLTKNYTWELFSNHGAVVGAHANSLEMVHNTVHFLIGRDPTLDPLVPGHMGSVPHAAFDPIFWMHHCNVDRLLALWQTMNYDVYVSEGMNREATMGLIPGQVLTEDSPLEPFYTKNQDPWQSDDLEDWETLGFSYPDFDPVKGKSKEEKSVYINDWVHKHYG

SMILES	Tyrosinase inhibitory activity in words
Oc1ccc(/C=C/c2cc(O)cc(O)c2)cc1 [trans-Resveratrol 1, (E)-5-(4-hydroxystyryl)benzene-1,3-diol]	moderate inhibitory activity
Oc1ccc(C=Cc2cc(O)cc3c2[C@H](c2cc(O)cc(O)c2)[C@@H](c2ccc(O)cc2)O3)cc1 [trans-ε-Viniferin 2, 5-[(2S, 3S)-6-hydroxy-2-(4-hydroxyphenyl)-4-(4-hydroxystyryl)-2,3-dihydrobenzofuran-3-yl]benzene-1,3-diol]	the most active tyrosinase inhibitor ever tested by us
